Source: PubChem BioAssay (NCI)
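These data come from cells grown in 96-well plates and exposed to compound for 48 hours at five concentrations. Abbreviation: GI50, concentration required for 50% inhibition of growth. Definition used: TGI = concentration required for complete inhibition of growth.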

Experiments:
Test in all cases: growth of human tumour cells (NCI), 48 h
NCI-H522 lung = test system: NCI-H522 lung
RPMI-8226 leukemia = test system: RPMI-8226 leukemia
DU-145 prostate = test system: DU-145 prostate
OVCAR-5 ovarian = test system: OVCAR-5 ovarian
EKVX NSCLC = test system: EKVX NSCLC
UACC-257 melanoma = test system: UACC-257 melanoma
MCF7 breast = test system: MCF7 breast
T-47D breast = test system: T-47D breast
M14 melanoma = test system: M14 melanoma
PC-3 prostate = test system: PC-3 prostate

SMILES	TGI (NCI-H522 lung) [µM]	TGI (RPMI-8226 leukemia) [µM]	TGI (DU-145 prostate) [µM]	TGI (OVCAR-5 ovarian) [µM]	TGI (EKVX NSCLC) [µM]	TGI (UACC-257 melanoma) [µM]	TGI (MCF7 breast) [µM]	TGI (T-47D breast) [µM]	TGI (M14 melanoma) [µM]	TGI (PC-3 prostate) [µM]	GI50 (NCI-H522 lung) [µM]	GI50 (RPMI-8226 leukemia) [µM]	GI50 (DU-145 prostate) [µM]	GI50 (OVCAR-5 ovarian) [µM]	GI50 (EKVX NSCLC) [µM]	GI50 (UACC-257 melanoma) [µM]	GI50 (MCF7 breast) [µM]	GI50 (T-47D breast) [µM]	GI50 (M14 melanoma) [µM]	GI50 (PC-3 prostate) [µM]
C1CC2CN(CCCN3CCOCC3)C(C1)O2 (stereo not given)	> 100	> 100	> 100	> 100	> 100	> 100	> 100	> 100	> 100	> 100										
O=c1cc(N/N=C/c2ccc(F)cc2)c2cc(Cl)ccc2[nH]1	74.3	> 100	> 100	58.9	> 100	56.5	> 100	> 100	> 100	96.3	17.4	17	33.9	21.6	16.8	15.5	15.3	18.6	10.2	8.41
Cc1c2cc(Cl)c3ccccc3c2c[n+]2ccccc12	12.4	46	31.6	> 100	> 100	17.9	15	2.53	15.5	20.1	2.13	7.75	12.8	29.7	2.46	4.27	2.28	0.544	3.62	2.81
Cc1nc2ccc(NC(=O)CCNC(=O)CCCc3ccc(CC(C(=O)O)C(=O)O)cc3)cc2s1	> 100	> 100	> 100	> 100	> 100	> 100	> 100	> 100	> 100	> 100	> 100	> 100	> 100	> 100	> 100	> 100	> 100	> 100	> 100	> 100
O=C(Nc1ccc(-c2nc(-c3cccc(OCCN4CCOCC4)c3)c(-c3ccnc(Br)c3)[nH]2)cc1)c1ccccc1	> 100	2.47	> 100	> 100	6.97	6.36	3.14	> 100	4.36	> 100	3.69	0.407	6.74	3.73	2.01	2.23	0.74	2.22	1.8	2.36
CC(C)Cc1ccc(C(C)CC2=CCC(CN(C)C)C2=O)cc1 (stereo not given)	8.84	5.24	30.2	29.9	33.9	26.9	2.78	4.7	17.2	28.4										
COc1cc2c(cc1O)CC1c3c(cc(O)c(OC)c3-2)CCN1C (stereo not given)	> 100	> 100	> 100	> 100	> 100	> 100	> 100	> 100	> 100	> 100										
